≈ marks a conversion by molar mass, not a printed value.
How the values were obtained:
[1] = biological target: Serine/threonine-protein kinase MARK2 (Homo sapiens) (UniProt Q7KZI7); experiment: Inhibition of human MARK2 (2 to 691 residues) assessed as remaining enzyme activity at 50 uM after 30 mins by 33P-ATP filter-binding assay
[2] = biological target: Serine/threonine-protein kinase SIK2 (Homo sapiens) (UniProt Q9H0K1); experiment: Inhibition of human SIK2 (2 to 962 residues) assessed as remaining enzyme activity at 50 uM after 30 mins by 33P-ATP filter-binding assay
Serine/threonine-protein kinase SIK2 (Homo sapiens), sequence (Q9H0K1 whole entry, looked up, the tested form may be a part): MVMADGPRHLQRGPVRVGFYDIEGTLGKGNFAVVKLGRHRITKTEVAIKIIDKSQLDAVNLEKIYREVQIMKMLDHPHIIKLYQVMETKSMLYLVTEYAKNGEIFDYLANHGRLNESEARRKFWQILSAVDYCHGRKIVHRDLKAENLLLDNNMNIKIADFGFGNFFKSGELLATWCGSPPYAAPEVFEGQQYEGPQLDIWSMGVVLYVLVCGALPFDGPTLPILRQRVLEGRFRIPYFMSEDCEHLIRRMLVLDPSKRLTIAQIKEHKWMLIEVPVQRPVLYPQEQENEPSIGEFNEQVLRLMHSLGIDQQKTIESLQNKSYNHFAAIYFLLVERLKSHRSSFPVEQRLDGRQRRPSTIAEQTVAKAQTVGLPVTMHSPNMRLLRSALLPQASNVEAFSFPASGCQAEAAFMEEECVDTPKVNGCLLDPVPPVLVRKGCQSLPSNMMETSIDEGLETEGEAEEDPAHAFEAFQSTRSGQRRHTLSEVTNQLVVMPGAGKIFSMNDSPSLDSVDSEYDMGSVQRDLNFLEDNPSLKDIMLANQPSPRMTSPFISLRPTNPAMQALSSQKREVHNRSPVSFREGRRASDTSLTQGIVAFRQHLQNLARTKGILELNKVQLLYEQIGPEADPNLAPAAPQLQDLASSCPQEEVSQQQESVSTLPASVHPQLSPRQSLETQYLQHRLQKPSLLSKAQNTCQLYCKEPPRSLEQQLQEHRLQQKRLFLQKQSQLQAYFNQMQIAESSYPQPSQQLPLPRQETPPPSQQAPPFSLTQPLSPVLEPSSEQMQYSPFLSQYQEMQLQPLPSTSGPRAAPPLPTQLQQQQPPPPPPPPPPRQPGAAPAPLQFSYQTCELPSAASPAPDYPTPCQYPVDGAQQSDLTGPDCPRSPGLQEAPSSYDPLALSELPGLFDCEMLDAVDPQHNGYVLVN

[3] = biological target: MAP/microtubule affinity-regulating kinase 4 (Homo sapiens) (UniProt Q96L34); experiment: Inhibition of human MARK4 (2 to 752 residues) assessed as remaining enzyme activity at 50 uM after 30 mins by 33P-ATP filter-binding assay
[4] = biological target: MAP kinase-interacting serine/threonine-protein kinase 1 (Homo sapiens) (UniProt Q9BUB5); experiment: Inhibition of human MNK1 (2 to 424 residues) assessed as remaining enzyme activity at 50 uM after 30 mins by 33P-ATP filter-binding assay
[5] = biological target: Interleukin-1 receptor-associated kinase 4 (Homo sapiens) (UniProt Q9NWZ3); experiment: Inhibition of human IRAK4 (14 to 460 residues) assessed as remaining enzyme activity at 50 uM after 30 mins by 33P-ATP filter-binding assay
[6] = biological target: Serine/threonine-protein kinase BRSK1 (Homo sapiens) (UniProt Q8TDC3); experiment: Inhibition of human BRSK1 (2 to 778 residues) assessed as remaining enzyme activity at 50 uM after 30 mins by 33P-ATP filter-binding assay
Serine/threonine-protein kinase BRSK1 (Homo sapiens), sequence (Q8TDC3 whole entry, the tested form may be a part): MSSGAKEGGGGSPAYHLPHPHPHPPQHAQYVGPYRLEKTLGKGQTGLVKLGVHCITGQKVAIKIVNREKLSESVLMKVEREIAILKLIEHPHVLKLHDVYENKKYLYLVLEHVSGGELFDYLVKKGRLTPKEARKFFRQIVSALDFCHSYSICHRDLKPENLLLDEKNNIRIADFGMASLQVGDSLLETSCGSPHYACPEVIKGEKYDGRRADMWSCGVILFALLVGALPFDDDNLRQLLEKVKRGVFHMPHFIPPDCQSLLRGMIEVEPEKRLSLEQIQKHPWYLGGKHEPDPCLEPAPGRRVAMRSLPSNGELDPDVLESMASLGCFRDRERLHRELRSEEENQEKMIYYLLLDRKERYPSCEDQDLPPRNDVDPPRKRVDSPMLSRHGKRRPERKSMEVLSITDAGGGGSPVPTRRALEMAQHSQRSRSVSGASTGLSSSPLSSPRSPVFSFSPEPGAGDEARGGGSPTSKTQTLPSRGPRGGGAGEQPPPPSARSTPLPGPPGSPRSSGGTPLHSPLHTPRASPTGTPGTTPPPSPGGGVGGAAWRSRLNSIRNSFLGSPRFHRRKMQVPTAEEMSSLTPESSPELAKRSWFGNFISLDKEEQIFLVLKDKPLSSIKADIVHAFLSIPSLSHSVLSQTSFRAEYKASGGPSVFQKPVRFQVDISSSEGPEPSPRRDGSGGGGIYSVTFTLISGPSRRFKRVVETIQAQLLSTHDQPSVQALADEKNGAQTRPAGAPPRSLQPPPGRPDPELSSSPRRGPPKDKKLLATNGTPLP

[7] = biological target: Insulin receptor (Homo sapiens) (UniProt P06213); experiment: Inhibition of human IR (1001 to 1382 residues) assessed as remaining enzyme activity at 50 uM after 30 mins by 33P-ATP filter-binding assay
[8] = biological target: Tyrosine-protein kinase BTK (Homo sapiens) (UniProt Q06187); experiment: Inhibition of human BTK (2 to 659 residues) assessed as remaining enzyme activity at 50 uM after 30 mins by 33P-ATP filter-binding assay
[9] = Cell cycle arrest in human HL60 cells assessed as accumulation at G2 phase at 1 uM (reference value: 5 %); assay type: functional, cell-based; conditions: HL-60
[10] = species on record: Homo sapiens; experiment: Inhibition of human PKA assessed as remaining enzyme activity at 50 uM after 30 mins by 33P-ATP filter-binding assay
[11] = biological target: Aurora kinase A (Homo sapiens) (UniProt O14965); experiment: Inhibition of human Aurora A (2 to 403 residues) assessed as remaining enzyme activity at 50 uM after 30 mins by 33P-ATP filter-binding assay
Aurora kinase A (Homo sapiens), sequence (O14965 whole entry, the tested form may be a part): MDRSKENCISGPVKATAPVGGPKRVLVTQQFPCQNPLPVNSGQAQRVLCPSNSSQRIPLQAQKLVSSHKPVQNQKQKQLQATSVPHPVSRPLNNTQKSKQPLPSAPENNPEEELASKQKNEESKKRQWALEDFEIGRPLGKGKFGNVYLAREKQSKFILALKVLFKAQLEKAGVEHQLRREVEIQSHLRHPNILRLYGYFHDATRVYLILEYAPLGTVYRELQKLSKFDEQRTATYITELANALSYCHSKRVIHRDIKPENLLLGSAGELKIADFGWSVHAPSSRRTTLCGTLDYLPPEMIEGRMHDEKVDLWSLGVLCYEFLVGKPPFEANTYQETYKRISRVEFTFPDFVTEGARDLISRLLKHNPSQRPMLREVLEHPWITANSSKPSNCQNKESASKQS

[12] = Thermodynamic equilibrium solubility in stimulated intestinal fluid at 120 ug/ml at pH 6.8 by HPLC analysis; assay type: ADME; conditions: simulated intestinal fluid, read-out: Therm_solubility
[13] = biological target: Tyrosine-protein kinase SYK (Homo sapiens) (UniProt P43405); experiment: Inhibition of human SYK (1 to 635 residues) assessed as remaining enzyme activity at 50 uM after 30 mins by 33P-ATP filter-binding assay
[14] = biological target: Dual specificity tyrosine-phosphorylation-regulated kinase 2 (Homo sapiens) (UniProt Q92630); experiment: Inhibition of human DYRK2 (3 to 528 residues) assessed as remaining enzyme activity at 50 uM after 30 mins by 33P-ATP filter-binding assay
Dual specificity tyrosine-phosphorylation-regulated kinase 2 (Homo sapiens), sequence (Q92630 whole entry, the tested form may be a part): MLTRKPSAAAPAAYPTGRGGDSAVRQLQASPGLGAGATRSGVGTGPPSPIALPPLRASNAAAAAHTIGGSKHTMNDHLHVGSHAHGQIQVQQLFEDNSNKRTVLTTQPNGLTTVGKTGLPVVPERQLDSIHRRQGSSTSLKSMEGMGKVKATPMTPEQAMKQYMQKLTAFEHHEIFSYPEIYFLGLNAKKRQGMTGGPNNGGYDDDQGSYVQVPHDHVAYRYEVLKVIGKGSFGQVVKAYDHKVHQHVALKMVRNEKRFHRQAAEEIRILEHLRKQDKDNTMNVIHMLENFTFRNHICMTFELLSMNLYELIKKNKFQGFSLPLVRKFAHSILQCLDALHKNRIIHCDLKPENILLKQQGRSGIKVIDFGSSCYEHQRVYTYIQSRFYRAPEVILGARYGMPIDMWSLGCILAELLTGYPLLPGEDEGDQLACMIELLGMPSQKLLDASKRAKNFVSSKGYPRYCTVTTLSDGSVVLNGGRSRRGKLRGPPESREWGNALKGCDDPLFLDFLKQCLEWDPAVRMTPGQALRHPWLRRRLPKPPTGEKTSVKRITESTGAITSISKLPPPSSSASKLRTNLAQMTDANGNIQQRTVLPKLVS

[15] = Cell cycle arrest in human HL60 cells assessed as accumulation at S phase at 10 uM (reference value: 36 %); assay type: functional, cell-based; conditions: HL-60
[16] = biological target: RAC-beta serine/threonine-protein kinase (Homo sapiens) (UniProt P31751); experiment: Inhibition of human PKBbeta assessed as remaining enzyme activity at 50 uM after 30 mins by 33P-ATP filter-binding assay
[17] = biological target: RAC-alpha serine/threonine-protein kinase (Homo sapiens) (UniProt P31749); experiment: Inhibition of human PKBalpha assessed as remaining enzyme activity at 50 uM after 30 mins by 33P-ATP filter-binding assay
RAC-alpha serine/threonine-protein kinase (Homo sapiens), sequence (P31749 whole entry): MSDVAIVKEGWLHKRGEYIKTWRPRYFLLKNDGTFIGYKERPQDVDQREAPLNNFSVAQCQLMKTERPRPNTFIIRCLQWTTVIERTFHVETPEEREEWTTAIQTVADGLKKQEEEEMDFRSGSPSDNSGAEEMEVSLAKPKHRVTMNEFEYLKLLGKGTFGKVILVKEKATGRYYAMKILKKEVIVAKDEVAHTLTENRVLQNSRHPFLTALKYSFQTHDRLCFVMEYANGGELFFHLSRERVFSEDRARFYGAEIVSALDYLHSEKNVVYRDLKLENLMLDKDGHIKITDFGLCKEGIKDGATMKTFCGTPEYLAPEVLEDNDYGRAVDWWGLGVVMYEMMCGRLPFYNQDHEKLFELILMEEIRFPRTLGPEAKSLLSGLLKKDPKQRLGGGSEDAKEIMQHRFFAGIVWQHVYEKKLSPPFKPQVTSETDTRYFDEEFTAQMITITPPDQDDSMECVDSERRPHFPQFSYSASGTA

[18] = biological target: Casein kinase II (Homo sapiens) (UniProt P67870+P68400+P19784); experiment: Inhibition of human CK2 assessed as remaining enzyme activity at 50 uM after 30 mins by 33P-ATP filter-binding assay; assay type: protein-complex assay
[19] = Partition coefficient, logP of the compound in water/PBS buffer at 25 degC by retention time method; assay type: physicochemical
[20] = biological target: Calcium/calmodulin-dependent protein kinase kinase 2 (Homo sapiens) (UniProt Q96RR4); experiment: Inhibition of human CAMKKbeta (1 to 541 residues) assessed as remaining enzyme activity at 50 uM after 30 mins by 33P-ATP filter-binding assay
Calcium/calmodulin-dependent protein kinase kinase 2 (Homo sapiens), sequence (Q96RR4 2-588 limits assumed): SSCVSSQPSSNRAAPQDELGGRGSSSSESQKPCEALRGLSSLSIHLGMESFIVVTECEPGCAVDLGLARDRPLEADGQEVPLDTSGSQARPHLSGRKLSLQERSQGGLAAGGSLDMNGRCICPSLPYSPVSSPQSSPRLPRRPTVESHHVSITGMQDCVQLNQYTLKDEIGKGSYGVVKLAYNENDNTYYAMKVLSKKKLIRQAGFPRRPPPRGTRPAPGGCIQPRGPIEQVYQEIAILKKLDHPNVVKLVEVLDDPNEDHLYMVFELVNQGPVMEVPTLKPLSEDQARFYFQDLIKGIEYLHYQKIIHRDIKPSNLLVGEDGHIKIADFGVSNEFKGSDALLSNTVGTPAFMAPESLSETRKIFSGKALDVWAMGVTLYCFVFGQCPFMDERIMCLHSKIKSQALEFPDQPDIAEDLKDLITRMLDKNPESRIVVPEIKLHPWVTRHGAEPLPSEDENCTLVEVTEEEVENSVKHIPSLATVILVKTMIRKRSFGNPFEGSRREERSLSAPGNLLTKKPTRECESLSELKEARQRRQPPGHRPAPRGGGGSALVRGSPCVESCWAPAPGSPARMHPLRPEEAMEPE

[21] = biological target: Tyrosine-protein kinase ZAP-70 (Homo sapiens) (UniProt P43403); experiment: Inhibition of human ZAP70 (1 to 619 residues) assessed as remaining enzyme activity at 50 uM after 30 mins by 33P-ATP filter-binding assay
[22] = biological target: MAP kinase-activated protein kinase 5 (Homo sapiens) (UniProt Q8IW41); experiment: Inhibition of human PRAK (1 to 471 residues) assessed as remaining enzyme activity at 50 uM after 30 mins by 33P-ATP filter-binding assay
MAP kinase-activated protein kinase 5 (Homo sapiens), sequence (Q8IW41 whole entry, the tested form may be a part): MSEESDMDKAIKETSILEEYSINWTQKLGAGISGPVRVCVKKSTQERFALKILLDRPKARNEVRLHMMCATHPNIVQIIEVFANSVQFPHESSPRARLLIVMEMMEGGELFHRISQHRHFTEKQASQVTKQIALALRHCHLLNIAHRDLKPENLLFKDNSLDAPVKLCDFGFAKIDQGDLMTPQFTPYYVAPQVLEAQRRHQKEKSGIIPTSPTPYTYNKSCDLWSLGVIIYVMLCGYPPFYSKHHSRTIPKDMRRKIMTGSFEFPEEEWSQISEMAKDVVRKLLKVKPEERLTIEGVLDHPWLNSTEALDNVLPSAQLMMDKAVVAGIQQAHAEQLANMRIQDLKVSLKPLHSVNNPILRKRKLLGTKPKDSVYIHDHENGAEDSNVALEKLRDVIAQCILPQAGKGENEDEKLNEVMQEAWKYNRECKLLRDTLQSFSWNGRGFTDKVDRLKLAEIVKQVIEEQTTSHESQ

[23] = biological target: Mitogen-activated protein kinase kinase kinase 5 (Homo sapiens) (UniProt Q99683); experiment: Inhibition of human ASK1 (670 to 950 residues) assessed as remaining enzyme activity at 50 uM after 30 mins by 33P-ATP filter-binding assay
[24] = Partition coefficient, logP of the compound in water/PBS buffer at pH 7.4 at 25 degC after 20 mins by shake flask method; assay type: physicochemical
[25] = biological target: Mitogen-activated protein kinase 1 (Homo sapiens) (UniProt P28482); experiment: Inhibition of human ERK2 (2 to 360 residues) assessed as remaining enzyme activity at 50 uM after 30 mins by 33P-ATP filter-binding assay
Mitogen-activated protein kinase 1 (Homo sapiens), sequence (P28482 whole entry, the tested form may be a part): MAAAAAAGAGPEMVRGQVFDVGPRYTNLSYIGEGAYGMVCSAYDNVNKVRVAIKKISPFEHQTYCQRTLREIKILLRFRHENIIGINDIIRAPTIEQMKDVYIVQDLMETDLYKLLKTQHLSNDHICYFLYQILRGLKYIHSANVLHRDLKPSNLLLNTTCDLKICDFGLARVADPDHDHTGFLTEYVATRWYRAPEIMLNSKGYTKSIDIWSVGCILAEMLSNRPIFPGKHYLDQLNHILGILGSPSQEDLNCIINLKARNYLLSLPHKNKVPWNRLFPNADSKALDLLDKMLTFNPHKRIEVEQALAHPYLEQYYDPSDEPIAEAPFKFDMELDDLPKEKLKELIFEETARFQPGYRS

[26] = biological target: Dual specificity tyrosine-phosphorylation-regulated kinase 3 (Homo sapiens) (UniProt O43781); experiment: Inhibition of human DYRK3 (1 to 588 residues) assessed as remaining enzyme activity at 50 uM after 30 mins by 33P-ATP filter-binding assay
[27] = biological target: AMP-activated protein kinase, AMPK (Homo sapiens) (UniProt P54646+O43741+P54619+Q9UGJ0+Q9Y478+Q13131+Q9UGI9); experiment: Inhibition of human AMPK assessed as remaining enzyme activity at 50 uM after 30 mins by 33P-ATP filter-binding assay; assay type: protein-complex assay
[28] = tested on: MDA-MB-231; experiment: Cytotoxicity against human MDA-MB-231 cells assessed as cell growth inhibition after 48 hrs by MTT assay; assay type: functional; conditions: MDA-MB-231, 48 h
[29] = tested on: HL-60; experiment: Induction of apoptosis in human HL60 cells assessed as apoptotic cells at 1 uM (reference value: 1 %); assay type: functional
[30] = biological target: Tyrosine-protein kinase JAK2 (Homo sapiens) (UniProt O60674); experiment: Inhibition of human JAK2 assessed as remaining enzyme activity at 50 uM after 30 mins by 33P-ATP filter-binding assay
[31] = biological target: Receptor tyrosine-protein kinase erbB-4 (Homo sapiens) (UniProt Q15303); experiment: Inhibition of human HER4 (706 to 991 residues) assessed as remaining enzyme activity at 50 uM after 30 mins by 33P-ATP filter-binding assay

For `Cc1cc(=O)c2c(O)cc(O)c([C@H]3CCN(C)C[C@H]3O)c2o1` [ROHITUKINE], the Activity [1] was 69%, the Activity [2] was 19% and the Activity [3] was 92%. It also gave an Activity [4] of 88%, an Activity [5] of 75% and an Activity [6] of 36%. It also gave an Activity [7] of 91%, an Activity [8] of 58% and an Activity [9] of 13%. The Activity [10] was 88%, the Activity [11] was 91% and the solubility thermodynamic [12] was 18.9 mg/mL (≈ 61.9 mM). The Activity [13] was 109%, the Activity [14] was 84% and the Activity [15] was 48%. The Activity [16] was 80%, the Activity [17] was 76% and the Activity [18] was 90%. For the same compound, the logP [19] was 1.01, the Activity [20] was 18% and the Activity [21] was 103%. For the same compound, the Activity [22] was 72%, the Activity [23] was 96% and the logD at 20 min [24] was -0.55. The Activity [25] was 90%, the Activity [26] was 77% and the Activity [27] was 16%. The GI50 [28] was 13 µM, the Activity [29] was 1% and the Activity [30] was 41%. For the same compound, the Activity [31] was 79%.

From ChEMBL document CHEMBL3826966, “A chromatography-free isolation of rohitukine from leaves of Dysoxylum binectariferum: Evaluation for in vitro cytotoxicity, Cdk inhibition and physicochemical properties” (Bioorg Med Chem Lett, 2016)
